Experimental data reported in US4344939A, “Penicillin 1,1-dioxides, compositions thereof and methods of use” (Bayer Aktiengesellschaft, priority 1979, dated 1982).

How the values were obtained:
Type in all cases: cell-based
[1] = system: Staphylococcus aeureus 1756; assay: MIC, Table 1, Staphylococcus aureus 1756
Source text: (§1) The penicillanic acid 1,1-dioxide derivatives according to the invention inactivate, by inhibition or destruction, the bacterial enzymes which split the β-lactam ring (β-lactamases). The degradation of other penicillins, for example of amoxicillin, mezlocillin, ampicillin, azlocillin, penicillin G, carbenicillin and ticarcillin, is thereby prevented, and on the one hand their activity is thereby retained and on the other hand their spectrum of action is extended to bacteria which produce β-lactamase.

[2] = system: Staphylococcus aureus 133; assay: in vitro turbidity test in Muller-Hinton nutrient broth; details: dosage of 1 μg/ml; 1×10^5 to 2×10^5 bacteria per ml; 0.1% glucose; incubated 24 hours
Protocol: […] In each case, the nutrient solution contained 1×10^5 to 2×10^5 bacteria per ml. The small tubes containing this batch were each incubated for 24 hours and the degree of turbidity was then determined. Absence from turbidity indicates action.

Klebsiella pneum. 1852 = assay: MIC, Table 1, Klebsiella pneum. 1852
Source text: as §1

E. coli T 7 = assay: MIC, Table 1, E. coli T 7
Source text: as §1

Row | Compound | MIC [1] [E/ml] | degree of turbidity (absence from turbidity indicates action) [2] | MIC (Klebsiella pneum. 1852) [E/ml] | MIC (E. coli T 7) [E/ml]
1 | CCOC(OCC)(OCC)C(=O)N[C@@H]1C(=O)N2[C@@H](C(=O)O)C(C)(C)S(=O)(=O)[C@H]12 [Example 1] | > 256 | free from turbidity | > 256 | –
2 | CC1(C)S[C@@H]2[C@H](NC(=O)[C@H](NC(=O)N3CCN(S(C)(=O)=O)C3=O)c3ccccc3)C(=O)N2[C@H]1C(=O)O [mezlocillin] | 256 | – | 128 | > 256
